Experimental data from patent publication US20100311748A1, “HETEROCYCLIC AMIDES USEFUL FOR THE TREATMENT OF CANCER AND PSORIASIS” (ASTRAZENECA AB, priority 2007, published 2010).

Each compound was assayed on Hedgehog pathway (assay: Hedgehog Pathway Cellular Differentiation Assay (alkaline phosphatase production in C3H10T1/2 cells with Shh ligand)). Settings: 3 μM compound, Shh ligand conditioned media, 72 h, alkaline phosphatase.
Assay type: cell-based
Outline: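 C3H10T1/2 cells in DMEM/2% FBS with Shh-conditioned medium were treated 72 h with compound, threefold dilutions from 30 μM to 3 nM. After RIPA lysis, alkaline phosphatase was read with pNp (1 mg/mL, diethanolamine pH 9.8) at 30 °C, absorbance 405 nm. Percent inhibition and IC50 came from absorbance.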

Question: For `Cc1ccc(-c2ncc[nH]2)cc1NC(=O)c1ccc2c(c1)OCCN2C` [Example 149, N-[5-(1H-imidazol-2-yl)-2-methyl-phenyl]-2-methyl-5-oxa-2-azabicyclo[4.4.0]deca-7,9,11-triene-8-carboxamide], which “% Inhibition at 3 μM” value is on record?
Answer: Its value is 63.4%.

Question: `Cc1ccc(-c2ncc[nH]2)cc1NC(=O)c1ccc2c(c1)OCCO2` [Example 151, N-[5-(1H-imidazol-2-yl)-2-methyl-phenyl]-2,5-dioxabicyclo[4.4.0]deca-7,9,11-triene-8-carboxamide] was tested. Which “% Inhibition at 3 μM” value did it give?
Answer: Its value is 21.9%.

Same assay, conditions: Mus musculus, C3H 10T1/2, 3 μM compound, Shh ligand conditioned media, 72 h, alkaline phosphatase

Question: With `Cc1ccc(-c2ncc[nH]2)cc1NC(=O)c1ccc(OCc2cc(OCCO)ccn2)cc1` [Example 132, N-(5-(1H-imidazol-2-yl)-2-methylphenyl)-4-((4-(2-hydroxyethoxy)pyridin-2-yl)methoxy)benzamide] as the compound, how does the inhibition at 3 µM read?
Answer: The inhibition at 3 µM was 77.1%.

Question: How did the inhibition at 3 µM turn out when `Cc1ccc(-c2ncc[nH]2)cc1NC(=O)c1ccc(COc2ccccc2C#N)cc1` [Example 133, 4-[(2-cyanophenoxy)methyl]-N-[5-(1H-imidazol-2-yl)-2-methylphenyl]benzamide] was run?
Answer: The inhibition at 3 µM was 77%.

Question: For `Cc1ccc(-c2ncc[nH]2)cc1NC(=O)c1ccc(COc2ccccn2)cc1` [Example 134, N-[5-(1H-imidazol-2-yl)-2-methylphenyl]-4-[(pyridin-2-yloxy)methyl]benzamide], which inhibition at 3 µM is on record?
Answer: Its inhibition at 3 µM is 77.3%.

Question: `COc1cccnc1COc1ccc(C(=O)Nc2cc(-c3ncc[nH]3)ccc2C)cc1` [Example 135, N-(5-(1H-imidazol-2-yl)-2-methylphenyl)-4-((3-methoxypyridin-2-yl)methoxy)benzamide] was tested. Which inhibition at 3 µM did it give?
Answer: Its inhibition at 3 µM is 76.9%.

Question: For `Cc1ccc(-c2ncc[nH]2)cc1NC(=O)c1ccc(OCc2ncccc2C#N)cc1` [Example 136, N-(5-(1H-imidazol-2-yl)-2-methylphenyl)-4-((3-cyanopyridin-2-yl)methoxy)benzamide], which inhibition at 3 µM is on record?
Answer: The inhibition at 3 µM was 77%.

Question: With `Cc1ccc(-c2ncc[nH]2)cc1NC(=O)c1ccc(OCc2ncccc2N2CCOCC2)cc1` [Example 137, N-(5-(1H-imidazol-2-yl)-2-methylphenyl)-4-((3-morpholinopyridin-2-yl)methoxy)benzamide] as the compound, how does the inhibition at 3 µM read?
Answer: The inhibition at 3 µM was 76.5%.

Question: With `Cc1ccc(-c2ncc[nH]2)cc1NC(=O)c1ccc(OCc2ncccc2N2CCN(C)CC2)cc1` [Example 138, N-(5-(1H-imidazol-2-yl)-2-methylphenyl)-4-((3-(4-methylpiperazin-1-yl)pyridin-2-yl)methoxy)benzamide] as the compound, how does the inhibition at 3 µM read?
Answer: The inhibition at 3 µM was 42.2%.

Question: For `Cc1ccc(-c2ncc[nH]2)cc1NC(=O)c1ccc(OCc2ccc(N3CCOCC3)cn2)cc1` [Example 139, N-(5-(1H-imidazol-2-yl)-2-methylphenyl)-4-((5-morpholinopyridin-2-yl)methoxy)benzamide], which inhibition at 3 µM is on record?
Answer: The inhibition at 3 µM was 84.1%.

Question: With `Cc1ccc(-c2ncc[nH]2)cc1NC(=O)c1ccc(NCc2ccc(N3CCOCC3)cn2)cc1` [Example 140, N-(5-(1H-imidazol-2-yl)-2-methylphenyl)-4-((5-morpholinopyridin-2-yl)methylamino)benzamide] as the compound, how does the inhibition at 3 µM read?
Answer: The inhibition at 3 µM was 85.5%.

Question: Which inhibition at 3 µM does the source give for `Cc1ccc(-c2ncc[nH]2)cc1NC(=O)c1ccc(OCC2CCCCN2C(=O)OC(C)(C)C)cc1` (stereo not shown) [Example 141, tert-butyl 2-((4-(5-(1H-imidazol-2-yl)-2-methylphenylcarbamoyl)phenoxy)methyl)piperidine-1-carboxylate] here?
Answer: Its inhibition at 3 µM is 85.3%.

Question: For `Cc1ccc(-c2ncc[nH]2)cc1NC(=O)c1ccc(OCC2CCCCN2)cc1` (stereo not shown) [Example 142, N-(5-(1H-imidazol-2-yl)-2-methylphenyl)-4-(piperidin-2-ylmethoxy)benzamide], which inhibition at 3 µM is on record?
Answer: The inhibition at 3 µM was 31.3%.

Question: With `Cc1ccc(-c2ncc[nH]2)cc1NC(=O)c1ccc(OCC2CCCCN2C)cc1` (stereo not shown) [Example 143, N-(5-(1H-imidazol-2-yl)-2-methylphenyl)-4-((1-methylpiperidin-2-yl)methoxy)benzamide] as the compound, how does the inhibition at 3 µM read?
Answer: Its inhibition at 3 µM is 62.3%.

Question: Which inhibition at 3 µM does the source give for `Cc1ccc(-c2ncc[nH]2)cc1NC(=O)c1ccc(OCc2ncccc2O)cc1` [Example 144, N-(5-(1H-imidazol-2-yl)-2-methylphenyl)-4-((3-hydroxypyridin-2-yl)methoxy)benzamide] here?
Answer: The inhibition at 3 µM was 8.8%.

Question: For `Cc1ccc(-c2ncc[nH]2)cc1NC(=O)c1ccc(Oc2ccccc2)nc1` [Example 145, N-[5-(1H-imidazol-2-yl)-2-methyl-phenyl]-6-phenoxy-pyridine-3-carboxamide], which inhibition at 3 µM is on record?
Answer: The inhibition at 3 µM was 67.1%.

Question: `Cc1ccc(-c2ncc[nH]2)cc1NC(=O)c1cccc(C#N)c1` [Example 146, 3-cyano-N-[5-(1H-imidazol-2-yl)-2-methyl-phenyl]benzamide] was tested. Which inhibition at 3 µM did it give?
Answer: Its inhibition at 3 µM is 17.1%.

Question: Which inhibition at 3 µM does the source give for `Cc1ccc(-c2ncc[nH]2)cc1NC(=O)c1ccc(C(F)(F)F)nc1C` [Example 147, N-[5-(1H-imidazol-2-yl)-2-methyl-phenyl]-2-methyl-6-(trifluoromethyl)pyridine-3-carboxamide] here?
Answer: Its inhibition at 3 µM is 19.3%.

Question: Which inhibition at 3 µM does the source give for `Cc1ccc(-c2ncc[nH]2)cc1NC(=O)c1cccc(N(C)C)c1` [Example 148, 3-dimethylamino-N-[5-(1H-imidazol-2-yl)-2-methyl-phenyl]benzamide] here?
Answer: The inhibition at 3 µM was 9.1%.

Question: With `Cc1ccc(-c2ncc[nH]2)cc1NC(=O)c1ccc(C(F)(F)F)nc1` [Example 150, N-[5-(1H-imidazol-2-yl)-2-methyl-phenyl]-6-(trifluoromethyl)pyridine-3-carboxamide] as the compound, how does the inhibition at 3 µM read?
Answer: Its inhibition at 3 µM is 19.4%.

Question: With `Cc1ccc(-c2ncc[nH]2)cc1NC(=O)c1cccc(Cl)c1` [Example 152, 3-chloro-N-[5-(1H-imidazol-2-yl)-2-methyl-phenyl]benzamide] as the compound, how does the inhibition at 3 µM read?
Answer: Its inhibition at 3 µM is 45.3%.

Question: With `Cc1ccc(-c2ncc[nH]2)cc1NC(=O)c1ccc(N2CCOCC2)nc1` [Example 153, N-[5-(1H-imidazol-2-yl)-2-methyl-phenyl]-6-morpholin-4-yl-pyridine-3-carboxamide] as the compound, how does the inhibition at 3 µM read?
Answer: The inhibition at 3 µM was 53.7%.

Question: For `COc1ccc(C(=O)Nc2cc(-c3ncc[nH]3)ccc2C)cc1OC` [Example 154, N-[5-(1H-imidazol-2-yl)-2-methyl-phenyl]-3,4-dimethoxy-benzamide], which inhibition at 3 µM is on record?
Answer: Its inhibition at 3 µM is 17.6%.

Question: With `Cc1ccc(-c2ncc[nH]2)cc1NC(=O)c1ccc(OCc2ccc(N3CCN(C)CC3)cn2)cc1` [Example 155, N-[5-(1H-imidazol-2-yl)-2-methylphenyl]-4-{[5-(4-methylpiperazin-1-yl)pyridin-2-yl]methoxy}benzamide] as the compound, how does the inhibition at 3 µM read?
Answer: Its inhibition at 3 µM is 83.3%.

Question: How did the inhibition at 3 µM turn out when `Cc1ccc(-c2cn(C)c(C)n2)cc1NC(=O)c1ccc(OCc2ccccn2)cc1` [Example 156, N-[5-(1,2-dimethyl-1H-imidazol-4-yl)-2-methylphenyl]-4-(pyridin-2-ylmethoxy)benzamide] was run?
Answer: The inhibition at 3 µM was 86.2%.
